Laboratory results as given in US12109204B2, “Methods for treating muscular dystrophies” (The Regents of the University of California, priority 2018, dated 2024).

Experiments:
SSPN protein = SSPN protein immunoblot in C2C12 wild-type myotubes; assay type: cell-based, murine; conditions: C2C12 cells, 1 μM-10 μM, 48 hours, immunoblot normalized to GAPDH (FIG. 10e)
Experimental: Cells were treated for 48 hours beginning at day 2 of differentiation with DMSO (vehicle control, ATCC), felodipine (Sigma), nilvadipine (Sigma), alloxazine (Sigma), GW5074 (Sigma), methylthioadenosine (Santa Cruz Biotechnology), or ezutromid (Cayman Chemicals) diluted in cell type specific differentiation media at doses listed in the figures. For gene expression studies, each treatment was performed in duplicate. For protein studies, each treatment was performed with single or double replicates. C2C12 murine myotubes treated for 48 hours were lysed using RIPA buffer (Thermo Fisher Scientific) containing a protease inhibitor cocktail (0.6 μg/ml pepstatin A, 0.5 μg/ml aprotinin, 0.5 μg/ml leupeptin, 0.1 mM PMSF, 0.75 mM benzamidine, 5 μM calpain I inhibitor, 5 μM calpeptin). […] The supernatant was collected, quantified for protein concentration using the DC protein assay (Bio-Rad), and normalized to 2 mg/ml in water and Laemmli sample buffer with a final concentration of 10% glycerol (Sigma-Aldrich), 5% beta-mercaptoethanol (Sigma-Aldrich), 3% sodium dodecyl sulfate (Sigma-Aldrich), and 0.05% bromophenol blue (Sigma-Aldrich). […] Autoradiography films were developed using a SRX-101A tabletop processor (Konica Minolta), scanned to a digital file, and analyzed by densitometry of bands using ImageJ version 1.51s. […]

C2C12 wild-type myotubes = assay: Fusion index and myotube morphology in wild-type myotubes; assay type: cell-based, murine

In the case of CCOC(=O)C1=C(C)NC(C)=C(C(=O)OC)C1c1cccc(Cl)c1Cl (stereo not shown) [Felodipine, 5-O-ethyl 3-O-methyl 4-(2,3-dichlorophenyl)-2,6-dimethyl-1,4-dihydropyridine-3,5-dicarboxylate], the SSPN protein levels (SSPN protein) is reported as “increases sarcospan protein levels”, the SSPN protein levels (SSPN protein; listed as felodipine) is reported as “increase in SSPN protein levels” and the “fusion index (nuclei in myosin heavy chain positive area/total nuclei in field)” value (C2C12 wild-type myotubes; wild-type myotubes (FIG. 12c-d)) is reported as “does not increase fusion index”. For the same compound, the “formation of hypertrophic myotubes” value (C2C12 wild-type myotubes; wild-type myotubes (FIG. 12e-f)) was “does induce the formation of hypertrophic wild-type myotubes”.
